Target: MC1R on B16/F10 murine melanoma cells (Mus musculus, UniProt Q01727)
Test: In vitro competitive binding assay

MC1R on B16/F10 murine melanoma cells, sequence (Q01727 whole entry): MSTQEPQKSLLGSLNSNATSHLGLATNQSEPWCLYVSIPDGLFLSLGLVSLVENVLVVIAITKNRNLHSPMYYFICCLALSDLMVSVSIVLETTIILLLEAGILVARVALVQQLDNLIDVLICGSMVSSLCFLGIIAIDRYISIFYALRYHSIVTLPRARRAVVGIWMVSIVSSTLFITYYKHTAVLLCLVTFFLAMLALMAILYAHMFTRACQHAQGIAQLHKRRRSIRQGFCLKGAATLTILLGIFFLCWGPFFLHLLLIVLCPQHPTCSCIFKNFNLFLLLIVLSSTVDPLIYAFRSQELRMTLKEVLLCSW

Question: With `CSCC[C@H](NC(=O)[C@H](CO)NC(=O)[C@H](Cc1ccc(O)cc1)NC(=O)[C@H](CO)NC(=O)CN1CCN(CC(=O)O)CCN(CC(=O)O)CCN(CC(=O)O)CC1)C(=O)N[C@@H](CCC(=O)O)C(=O)N[C@@H](Cc1c[nH]cn1)C(=O)N[C@@H](Cc1ccccc1)C(=O)N[C@@H](CCCNC(=N)N)C(=O)N[C@@H](Cc1c[nH]c2ccccc12)C(=O)NCC(=O)N[C@@H](CCCCN)C(=O)N1CCC[C@H]1C(=O)N[C@H](C(N)=O)C(C)C` [DOTA-a-MSH] as the molecule, how does the IC50 read?
Answer: Its IC50 is 1.8 ± 0.3 nM.

— article PMC3799893 (Recent results in cancer research. Fortschritte der …, 2013)
